Results on 21 molecules are retold here after US11149022B2, “Antagonists of the muscarinic acetylcholine receptor M4” (Vanderbilt University, priority 2017, dated 2021).

The target in the test is T1, Human M4 (Homo sapiens, UniProt P08173).
T1 construct: expressed in transfected cells; host or cells: CHO-K1 (ATCC), stably co-expressing chimeric G protein Gqi5
T1 sequence (P08173 1-479): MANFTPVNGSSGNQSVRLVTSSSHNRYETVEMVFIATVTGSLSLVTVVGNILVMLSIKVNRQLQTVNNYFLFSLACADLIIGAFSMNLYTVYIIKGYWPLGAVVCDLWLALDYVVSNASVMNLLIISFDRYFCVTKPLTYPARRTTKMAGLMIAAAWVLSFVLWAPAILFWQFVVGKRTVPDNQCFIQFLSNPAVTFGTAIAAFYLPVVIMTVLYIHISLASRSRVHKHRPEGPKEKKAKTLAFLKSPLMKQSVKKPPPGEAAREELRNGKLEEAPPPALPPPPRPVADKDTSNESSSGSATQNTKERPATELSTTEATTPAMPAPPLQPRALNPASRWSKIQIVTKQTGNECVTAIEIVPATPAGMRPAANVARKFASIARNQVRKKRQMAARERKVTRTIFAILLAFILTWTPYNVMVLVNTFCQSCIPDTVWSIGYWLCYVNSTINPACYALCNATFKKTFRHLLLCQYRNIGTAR
As to the kind of experiment: mAChR M4 cell-based functional assay (calcium flux, antagonist mode). The note with it: for remaining activity at 30 µM: % ACh maximum at 30 μM, read-out: Emin; for IC50: M4/Gqi5/CHO-K1 cells, concentration-dependent decrease of the EC80 acetylcholine response. How it is done: Human or rat M4 cDNA, along with the chimeric G protein Gqi5, were transfected into Chinese hamster ovary (CHO-K1) cells purchased from the American Type Culture Collection using Lipofectamine2000. M4/Gqi5/CHO cells were grown in Ham's F-12 medium containing 10% heat-inactivated fetal bovine serum (FBS), 20 mM HEPES, 500 μg/mL G418 sulfate, and 200 μg/mL Hygromycin B.
For high throughput measurement of agonist-evoked increases in intracellular calcium, CHO-K1 cells stably expressing muscarinic receptors were plated in growth medium lacking G418 and hygromycin at 15,000 cells/20 μL/well in Greiner 384-well black-walled, tissue culture (TC)-treated, clear-bottom plates (VWR). Cells were incubated overnight at 37° C. and 5% CO2. The next day, cells were washed using an ELX 405 (BioTek) with assay buffer; the final volume was then aspirated to 20 μL, Next, 20 μL of a 2.3 μM stock of Fluo-4/acetoxymethyl ester (Invitrogen, Carlsbad, Calif.), prepared as a 2.3 μM stock in DMSO, mixed in a 1:1 ratio with 10% (w/v) Pluronic F-127 and diluted in assay buffer, was added to the wells and the cell plates were incubated for 50 min at 37° C. and 5% CO2. Dye was removed by washing with the ELX 405 and the final volume was aspirated to […]. Compound master plates were formatted in a 10 point concentration-response curve (CRC) format (1:3 dilutions) in 100% DMSO with a starting concentration of 10 or 1 mM using a BRAVO liquid handler (Agilent). Test compound CRCs were then transferred to daughter plates (240 nL) using the Echo acoustic plate reformatter (Labcyte, Sunnyvale, Calif.) and then diluted into assay buffer (40 μL) to a 2× stock using a Thermo Fisher Combi (Thermo Fisher Scientific, Waltham, Mass.).
Calcium flux was measured using the Functional Drug Screening System (FDSS) 6000 or 7000 (Hamamatsu Corporation, Tokyo, Japan) as an increase in the fluorescent static ratio. Compounds were applied to cells (20 μL, 2×) using the automated system of the FDSS at 2 seconds into the protocol and the data were collected at 1 Hz. At 143 s, 10 μL of an EC20 concentration of the muscarinic receptor agonist acetylcholine was added (5×), followed by the addition of 12 μL of an EC80 concentration of acetylcholine at the 268 s time point (5×). Agonist activity was analyzed as a concentration-dependent increase in calcium mobilization upon compound addition. Positive allosteric modulator activity was analyzed as a concentration-dependent increase in the EC20 acetylcholine response. Antagonist activity was analyzed as a concentration-dependent decrease in the EC80 acetylcholine response; for the purposes of the tables herein, an […] (inhibitory concentration 50) was calculated as a concentration-dependent decrease of the response elicited by an EC80 concentration of acetylcholine. Concentration-response curves were generated using a four-parameter logistical equation in XLFit curve fitting software (IDBS, Bridgewater, N.J.) for Excel (Microsoft, Redmond, Wash.) or Prism (GraphPad Software, Inc., San Diego, Calif.) or the Dotmatics software platform (Dotmatics, Bishop's Stortford, UK).
Compounds were synthesized as described above. Activity (IC50 and Emin) was determined in the mAChR M4 cell-based functional assay as described above and the data are shown in Table 4.

Usually IC50 stands for the concentration needed to halve the response being measured. For the molecule `Cc1cccnc1CN1CCC2(CC1)CC(Oc1ccc(-c3cc(F)ccc3Cl)nn1)C2` [Compound 23, 2-[6-(2-chloro-5-fluoro-phenyl)pyridazin-3-yl]oxy-7-[(3-methyl-2-pyridyl)methyl]-7-azaspiro[3.5]nonane], the remaining activity at 30 µM came out at 3.36% and the IC50 came out at 900 nM.

For the molecule `Cc1cnn(C)c1-c1ccc(OC2CC3(CCN(CC4CCSCC4)CC3)C2)nn1` [Compound 36, 2-[6-(2,4-dimethylpyrazol-3-yl)pyridazin-3-yl]oxy-7-(tetrahydrothiopyran-4-ylmethyl)-7-azaspiro[3.5]nonane], the remaining activity at 30 µM is 4.76% and the IC50 turned out to be 1210 nM.

In the case of `Fc1ccc(Cl)c(-c2ccc(OCC3CC4(CCN(CC5CCOCC5)CC4)C3)nn2)c1` [Compound 64, 2-[[6-(2-chloro-5-fluoro-phenyl)pyridazin-3-yl]oxymethyl]-7-(tetrahydropyran-4-ylmethyl)-7-azaspiro[3.5]nonane], the remaining activity at 30 µM stood at 6.61% and the IC50 turned out to be 1310 nM.

For `Cc1cccnc1CN1CCC2(CC1)CC(CNc1ccc(-c3cn(C)nc3C)nn1)C2` [Compound 56, 6-(1,3-dimethylpyrazol-4-yl)-N-[[7-[(3-methyl-2-pyridyl)methyl]-7-azaspiro[3.5]nonan-2-yl]methyl]pyridazin-3-amine], the remaining activity at 30 µM is 19.4% and the IC50 was 3940 nM.

Regarding `CC(C)(C)CCN1CCC2(CC1)CC(CNc1ccc(-c3cc(F)ccc3Cl)nn1)C2` [Compound 41, 6-(2-chloro-5-fluoro-phenyl)-N-[[7-(3,3-dimethylbutyl)-7-azaspiro[3.5]nonan-2-yl]methyl]pyridazin-3-amine], the remaining activity at 30 µM came out at 2.42% and the 50% inhibitory concentration (IC50) is 470 nM.

For `Cc1nn(C)cc1-c1ccc(NCC2CC3(CCN(CC45CC6CC(CC(C6)C4)C5)CC3)C2)nn1` [Compound 57, N-[[7-(1-adamantylmethyl)-7-azaspiro[3.5]nonan-2-yl]methyl]-6-(1,3-dimethylpyrazol-4-yl)pyridazin-3-amine], the remaining activity at 30 µM was found to be 3.64% and the IC50 is 300 nM.

With `Fc1ccc(Cl)c(-c2ccc(OC3CC4(CCN(CC5CCCCC5)CC4)C3)nn2)c1` [Compound 18, 2-[6-(2-chloro-5-fluoro-phenyl)pyridazin-3-yl]oxy-7-(cyclohexylmethyl)-7-azaspiro[3.5]nonane], the remaining activity at 30 µM stood at 2.94% and the IC50 was 760 nM.

As to `Cc1nn(C)cc1-c1ccc(NCC2CC3(CCN(Cc4ccccc4)CC3)C2)nn1` [Compound 53, N-[(7-benzyl-7-azaspiro[3.5]nonan-2-yl)methyl]-6-(1,3-dimethylpyrazol-4-yl)pyridazin-3-amine], the remaining activity at 30 µM worked out at 8.66% and the IC50 was found to be 2680 nM.

As to `Cc1cccnc1CN1CCC2(CC1)CC(Nc1ccc(-c3c(C)cnn3C)nn1)C2` [Compound 12, N-[6-(2,4-dimethylpyrazol-3-yl)pyridazin-3-yl]-7-[(3-methyl-2-pyridyl)methyl]-7-azaspiro[3.5]nonan-2-amine], the remaining activity at 30 µM was 6.85% and the IC50 turned out to be 1120 nM.

Turning to `Cc1cnn(C)c1-c1ccc(NC2CC3(CCN(CCC(C)(C)C)CC3)C2)nn1` [Compound 2, 7-(3,3-Dimethylbutyl)-N-[6-(2,4-dimethylpyrazol-3-yl)pyridazin-3-yl]-7-azaspiro[3.5]nonan-2-amine], the remaining activity at 30 µM worked out at 3.29% and the IC50 stood at 89 nM.

Turning to `Fc1ccc(Cl)c(-c2ccc(OC3CC4(CCN(CC5CCCOC5)CC4)C3)nn2)c1` (centres unmarked) [Compound 20, 2-[6-(2-chloro-5-fluoro-phenyl)pyridazin-3-yl]oxy-7-(tetrahydropyran-3-ylmethyl)-7-azaspiro[3.5]nonane], the remaining activity at 30 µM worked out at 5.55% and the IC50 was determined as 1770 nM.

On to `Cc1nn(C)cc1-c1ccc(OC2CC3(CCN(CC4CCSCC4)CC3)C2)nn1` [Compound 29, 2-[6-(1,3-dimethylpyrazol-4-yl)pyridazin-3-yl]oxy-7-(tetrahydrothiopyran-4-ylmethyl)-7-azaspiro[3.5]nonane], for which the remaining activity at 30 µM came out at 5.29% and the half-maximal inhibitory concentration (IC50) was 1170 nM.

Take `Cc1nn(C)cc1-c1ccc(NCC2CC3(CCN(CC4CCOCC4)CC3)C2)nn1` [Compound 52, 6-(1,3-dimethylpyrazol-4-yl)-N-[[7-(tetrahydropyran-4-ylmethyl)-7-azaspiro[3.5]nonan-2-yl]methyl]pyridazin-3-amine]: the remaining activity at 30 µM stood at 30.8% and the IC50 was more than 10000 nM.

Turning to `Fc1ccc(Cl)c(-c2ccc(OC3CC4(CCN(Cc5ccccc5)CC4)C3)nn2)c1` [Compound 22, 7-benzyl-2-[6-(2-chloro-5-fluoro-phenyl)pyridazin-3-yl]oxy-7-azaspiro[3.5]nonane], the remaining activity at 30 µM worked out at 3.34% and the IC50 was 1270 nM.

As for `Cc1cnn(C)c1-c1ccc(OC2CC3(CCN(CC4CCOCC4)CC3)C2)nn1` [Compound 35, 2-[6-(2,4-dimethylpyrazol-3-yl)pyridazin-3-yl]oxy-7-(tetrahydropyran-4-ylmethyl)-7-azaspiro[3.5]nonane], the remaining activity at 30 µM was 17.8% and the IC50 stood at 6370 nM.

For `Cc1nn(C)cc1-c1ccc(NCC2CC3(CCN(Cc4ccccn4)CC3)C2)nn1` [Compound 55, 6-(1,3-dimethylpyrazol-4-yl)-N-[[7-(2-pyridylmethyl)-7-azaspiro[3.5]nonan-2-yl]methyl]pyridazin-3-amine], the remaining activity at 30 µM came out at 34.3% and the IC50 is more than 10000 nM.

Regarding `Cc1nn(C)cc1-c1ccc(NC2CC3(CCN(CCC(C)(C)C)CC3)C2)nn1` [Compound 1, 7-(3,3-Dimethylbutyl)-N-[6-(1,3-dimethylpyrazol-4-yl)pyridazin-3-yl]-7-azaspiro[3.5]nonan-2-amine], the remaining activity at 30 µM is 3.48%.

On to `Cc1nn(C)cc1-c1ccc(NCC2CC3(CCN(CC4CCCOC4)CC3)C2)nn1` (centres unmarked) [Compound 51, 6-(1,3-dimethylpyrazol-4-yl)-N-[[7-(tetrahydropyran-3-ylmethyl)-7-azaspiro[3.5]nonan-2-yl]methyl]pyridazin-3-amine], for which the remaining activity at 30 µM amounted to 37.6% and the IC50 is more than 10000 nM.

Regarding `Fc1ccc(Cl)c(-c2ccc(NCC3CC4(CCN(Cc5ccc6c(c5)OCO6)CC4)C3)nn2)c1` [Compound 49, N-[[7-(1,3-benzodioxol-5-ylmethyl)-7-azaspiro[3.5]nonan-2-yl]methyl]-6-(2-chloro-5-fluoro-phenyl)pyridazin-3-amine], the remaining activity at 30 µM amounted to 4.6% and the IC50 stood at 2020 nM.

Turning to `Cc1cnn(C)c1-c1ccc(OC2CC3(CCN(CC4CCCCC4)CC3)C2)nn1` [Compound 34, 7-(cyclohexylmethyl)-2-[6-(2,4-dimethylpyrazol-3-yl)pyridazin-3-yl]oxy-7-azaspiro[3.5]nonane], the remaining activity at 30 µM worked out at 4.38% and the IC50 was found to be 850 nM.

Regarding `Cc1cnn(C)c1-c1ccc(NC2CC3(CCN(CC(C)C(C)(C)C)CC3)C2)nn1` (centres unmarked) [Compound 9, N-[6-(2,4-dimethylpyrazol-3-yl)pyridazin-3-yl]-7-(2,3,3-trimethylbutyl)-7-azaspiro[3.5]nonan-2-amine], the remaining activity at 30 µM turned out to be 3.11% and the IC50 worked out at 220 nM.
